Data: US20250340563A1, “FUSED PYRIDAZINE DERIVATIVES AS NLRP3 INHIBITORS” (Takeda Pharmaceutical Company Limited, priority 2022, published 2025)
pIC50: −log10 of the molar value.

How the values were obtained:
[1] = target: NLRP3 inflammasome (Homo sapiens, UniProt Q96P20); assay: IL-1β assay in IFN-γ-differentiated, LPS-primed, ATP-activated THP-1 cells (ELISA); format: cell-based; conditions: 50 ng/mL LPS priming, 2.5 mM ATP activation, 2 hours
How it was run: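 Supernatant IL-1β is quantified by ELISA after 2 h of 2.5 mM ATP stimulation at 37 °C, with IC50 taken from a four-parameter fit of % inhibition. Before this, THP-1 macrophages (25 ng/mL IFN-γ, 24 h) were LPS-primed (50 ng/mL, 24 h, no FBS) and exposed to serially diluted compound for 30 min.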

[2] = test system: NF-κB pathway; assay: TNF-α assay in IFN-γ-differentiated, LPS-stimulated THP-1 cells (ELISA); format: cell-based; conditions: Homo sapiens, 50 ng/mL LPS, 3 hours
Procedure: Monocytic THP-1 cells (ATCC: TIB-202) are maintained in accordance with the provider's instructions in RPMI media (Life Technologies, Cat #A10491-01); RPMI is supplemented with 10% heat inactivated fetal bovine serum (Hyclone Cat #SH30396.03). The cells are differentiated into macrophages by the addition of 25 ng/mL IFN-γ for 24 hours at 37° C./5% CO2. Media is exchanged with fresh media with no FBS. The cells are plated at 40,000 cells per well in 384-well flat-bottom cell culture plates (Costar 3764) containing compounds (added in 1:1000) in a 1:3.16 serial dilution series in DMSO and are incubated for 30 minutes at 37° C./5% CO2. The NF-κB pathway is activated with the addition of 50 ng/mL LPS and the cells are incubated for 3 hours at 37° C./5% CO2. At the end of the incubation period, supernatant (40 μL) is removed, and […] are monitored using an ELISA (Human TNF-α ELISA, R&D systems, Cat #DY210) according to the manufacturer's instructions.
The IC50 values are calculated from a plot of percentage of inhibition versus the inhibitor concentration by a logistics curve fit according to: Y=[Bottom+(Top−Bottom)]/(1+10^[(Log IC50−X)·Hill Slope], where Y is the % inhibition at the inhibitor concentration, X, “Bottom” is the lowest inhibition value, i.e. 0%, “Top” is the maximum inhibition value, i.e. 100%, and the “Hill Slope” describes the slope of the sigmoidal curve between the “Bottom” and “Top” values. The curve fitting was conducted with internally developed software.

Sequence of NLRP3 inflammasome (Q96P20 whole entry): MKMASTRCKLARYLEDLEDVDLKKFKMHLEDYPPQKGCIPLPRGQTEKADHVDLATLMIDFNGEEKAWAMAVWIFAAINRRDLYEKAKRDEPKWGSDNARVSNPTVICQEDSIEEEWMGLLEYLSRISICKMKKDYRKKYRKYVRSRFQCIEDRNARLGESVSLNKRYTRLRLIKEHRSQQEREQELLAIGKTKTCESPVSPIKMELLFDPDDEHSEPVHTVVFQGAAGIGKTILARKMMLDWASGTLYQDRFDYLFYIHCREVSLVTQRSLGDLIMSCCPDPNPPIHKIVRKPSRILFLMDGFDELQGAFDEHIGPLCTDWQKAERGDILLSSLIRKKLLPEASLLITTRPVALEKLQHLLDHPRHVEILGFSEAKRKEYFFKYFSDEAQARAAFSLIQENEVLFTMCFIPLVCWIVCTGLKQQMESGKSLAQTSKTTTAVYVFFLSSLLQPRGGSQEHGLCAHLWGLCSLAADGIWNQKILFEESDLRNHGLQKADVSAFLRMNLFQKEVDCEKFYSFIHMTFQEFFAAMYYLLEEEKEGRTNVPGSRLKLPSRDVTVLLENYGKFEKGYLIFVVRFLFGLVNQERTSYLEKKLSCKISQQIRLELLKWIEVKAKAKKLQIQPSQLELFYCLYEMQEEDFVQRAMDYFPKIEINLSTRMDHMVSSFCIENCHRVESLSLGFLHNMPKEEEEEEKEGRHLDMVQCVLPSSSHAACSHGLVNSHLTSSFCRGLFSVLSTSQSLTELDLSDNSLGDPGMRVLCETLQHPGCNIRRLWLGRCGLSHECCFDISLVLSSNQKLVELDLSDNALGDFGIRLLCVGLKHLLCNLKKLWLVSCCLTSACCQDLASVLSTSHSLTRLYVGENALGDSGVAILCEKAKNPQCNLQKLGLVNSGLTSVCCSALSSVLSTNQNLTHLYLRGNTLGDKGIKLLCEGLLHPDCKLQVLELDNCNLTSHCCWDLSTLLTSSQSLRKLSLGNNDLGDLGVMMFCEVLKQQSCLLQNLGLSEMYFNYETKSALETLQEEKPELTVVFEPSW

Row | Structure (SMILES) | pIC50 [1] | pIC50 [2]
1 | CN1C[C@H](F)C[C@@H](Nc2nnc(-c3ccccc3O)c3ccncc23)C1 (relative stereo) [Example 172, 2-(4-((trans-5-fluoro-1-methylpiperidin-3-yl)amino)pyrido[3,4-d]pyridazin-1-yl)phenol] | 7.70 | < 4.52
2 | Cc1ccc(-c2nnc(N[C@@H]3C[C@@H](F)CN(C)C3)c3cnccc23)c(O)c1 (relative stereo) [Example 173, 2-(4-((trans-5-fluoro-1-methylpiperidin-3-yl)amino)pyrido[3,4-d]pyridazin-1-yl)-5-methylphenol] | 8.52 | < 4.52
3 | COc1ccc(-c2nnc(Nc3cccc(O)c3)c3ccccc23)cc1 [Example 1, 3-((4-(4-methoxyphenyl)phthalazin-1-yl)amino)phenol] | 5.73 | 5.14
4 | CN1CCCC(Nc2nnc(-c3ccc(C4CC4)cc3)c3ccccc23)C1 (centres unmarked) [Example 16, 4-(4-cyclopropylphenyl)-N-(1-methylpiperidin-3-yl)phthalazin-1-amine] | 6.95 | < 4.52
5 | Oc1cccc(Nc2nnc(-c3ccc(C4CC4)cc3)c3ccccc23)c1 [Example 19, 3-((4-(4-cyclopropylphenyl)phthalazin-1-yl)amino)phenol] | 5.96 | 5.11
6 | CN1CCCC(Nc2nnc(-c3ccc(C(F)F)cc3)c3ccccc23)C1 (centres unmarked) [Example 21, 4-(4-(difluoromethyl)phenyl)-N-(1-methylpiperidin-3-yl)phthalazin-1-amine] | 7.12 | < 4.52
7 | CN1CCC[C@@H](Nc2nnc(-c3ccccc3O)c3ccncc23)C1 [Example 28, (R)-2-(4-((1-methylpiperidin-3-yl)amino)pyrido[3,4-d]pyridazin-1-yl)phenol] | 8.10 | < 4.52
8 | Cc1ccc(-c2nnc(N[C@@H]3CCCN(C)C3)c3cnccc23)cc1 [Example 30, (R)—N-(1-methylpiperidin-3-yl)-1-(p-tolyl)pyrido[3,4-d]pyridazin-4-amine] | 7.01 | < 4.52
9 | COc1ccc(-c2nnc(N[C@@H]3CCCN(C)C3)c3cnccc23)cc1 [Example 35, (R)-1-(4-methoxyphenyl)-N-(1-methylpiperidin-3-yl)pyrido[3,4-d]pyridazin-4-amine] | 7.06 | < 4.52
10 | COc1ccc(-c2nnc(N[C@@H]3CCCN(C)C3)c3cnccc23)c(O)c1 [Example 36, (R)-5-methoxy-2-(4-((1-methylpiperidin-3-yl)amino)pyrido[3,4-d]pyridazin-1-yl)phenol] | 8.00 | < 4.52
11 | COc1ccc(-c2nnc(Nc3ccccc3O)c3ccccc23)cc1 [Example 39, 2-((4-(4-methoxyphenyl)phthalazin-1-yl)amino)phenol] | 5.79 | < 4.52
12 | COc1ccc(-c2nnc(Nc3cccc(O)c3)c3cnccc23)cc1 [Example 40, 3-((1-(4-methoxyphenyl)pyrido[3,4-d]pyridazin-4-yl)amino)phenol] | 5.52 | < 4.52
13 | COc1ccc(-c2nnc(Nc3cccc(O)c3)c3ccncc23)cc1 [Example 41, 3-((4-(4-methoxyphenyl)pyrido[3,4-d]pyridazin-1-yl)amino)phenol] | 6.40 | < 4.52
14 | CN1CCCC(Nc2nnc(-c3ccc(Cl)cc3F)c3ccccc23)C1 (centres unmarked) [Example 43, 4-(4-chloro-2-fluorophenyl)-N-(1-methylpiperidin-3-yl)phthalazin-1-amine] | 7.39 | < 4.52
15 | CN1CCCC(Nc2nnc(-c3ccc(Cl)c(F)c3)c3ccccc23)C1 (centres unmarked) [Example 44, 4-(4-chloro-3-fluorophenyl)-N-(1-methylpiperidin-3-yl)phthalazin-1-amine] | 7.01 | < 4.52
16 | Cc1cc(Cl)ccc1-c1nnc(NC2CCCN(C)C2)c2ccccc12 (centres unmarked) [Example 46, 4-(4-chloro-2-methylphenyl)-N-(1-methylpiperidin-3-yl)phthalazin-1-amine] | 6.95 | < 4.52
17 | COc1ccc(-c2nnc(N[C@@H]3CCCN(C)C3)c3c(C)cccc23)cc1 [Example 56, (R)-4-(4-methoxyphenyl)-8-methyl-N-(1-methylpiperidin-3-yl)phthalazin-1-amine] | 7.14 | < 4.52

Row | Structure (SMILES) | pIC50 [1] | pIC50 [2]
18 | COc1ccc(-c2nnc(N[C@@H]3CCCN(CCF)C3)c3ccccc23)cc1 [Example 58, (R)—N-(1-(2-fluoroethyl)piperidin-3-yl)-4-(4-methoxyphenyl)phthalazin-1-amine] | 7.18 | < 4.52
19 | Oc1cc(Cl)ccc1-c1nnc(N[C@@H]2CCCN(CCF)C2)c2ccccc12 [Example 59, (R)-5-chloro-2-(4-((1-(2-fluoroethyl)piperidin-3-yl)amino)phthalazin-1-yl)phenol] | 8.70 | < 4.52
20 | Oc1ccccc1-c1nnc(N[C@@H]2CCCN(CCF)C2)c2ccccc12 [Example 60, (R)-2-(4-((1-(2-fluoroethyl)piperidin-3-yl)amino)phthalazin-1-yl)phenol] | 7.57 | 4.67
21 | CN1CCC[C@@H](Nc2nnc(-c3ccc(Cl)cc3)c3ccncc23)C1 [Example 64, (R)-1-(4-chlorophenyl)-N-(1-methylpiperidin-3-yl)pyrido[3,4-d]pyridazin-4-amine] | 7.24 | < 4.52
22 | CN1CCC[C@@H](Nc2nnc(-c3ccc(Cl)cc3)c3cnccc23)C1 [Example 67, (R)-4-(4-chlorophenyl)-N-(1-methylpiperidin-3-yl)pyrido[3,4-d]pyridazin-1-amine] | 6.26 | < 4.52
23 | CN1CCCC(Nc2nnc(-c3ccc(Cl)cc3F)c3ccncc23)C1 (centres unmarked) [Example 68, 1-(4-chloro-2-fluorophenyl)-N-(1-methylpiperidin-3-yl)pyrido[3,4-d]pyridazin-4-amine] | 7.34 | < 4.52
24 | CN1CCC[C@@H](Nc2nnc(-c3ccc(Cl)cc3F)c3ccncc23)C1 [Example 71, (R)-1-(4-chloro-2-fluorophenyl)-N-(1-methylpiperidin-3-yl)pyrido[3,4-d]pyridazin-4-amine] | 7.34 | 5.02
25 | COc1ccc(-c2nnc(NC3CCCN(C)C3)c3cnccc23)cc1 (centres unmarked) [Example 72, 1-(4-methoxyphenyl)-N-(1-methylpiperidin-3-yl)pyrido[3,4-d]pyridazin-4-amine] | 7.28 | < 4.52
26 | COc1ccc(-c2nnc(NC3CCCN(C)C3)c3ccncc23)cc1 (centres unmarked) [Example 73, 4-(4-methoxyphenyl)-N-(1-methylpiperidin-3-yl)pyrido[3,4-d]pyridazin-1-amine] | 6.57 | < 4.52
27 | CN1CCC[C@@H](Nc2nnc(-c3ccc(Cl)cc3O)c3ccncc23)C1 [Example 74, (R)-5-chloro-2-(4-((1-methylpiperidin-3-yl)amino)pyrido[3,4-d]pyridazin-1-yl)phenol] | 8.40 | < 4.52
28 | CN1CCC[C@@H](Nc2nnc(-c3ccc(Cl)cc3O)c3cnccc23)C1 [Example 75, (R)-5-chloro-2-(1-((1-methylpiperidin-3-yl)amino)pyrido[3,4-d]pyridazin-4-yl)phenol] | 8.52 | < 4.52
29 | Cc1nccc2c(-c3ccc(Cl)cc3)nnc(NC3CCCN(C)C3)c12 (centres unmarked) [Example 76, 1-(4-chlorophenyl)-5-methyl-N-(1-methylpiperidin-3-yl)pyrido[3,4-d]pyridazin-4-amine] | 6.75 | < 4.52
30 | COc1ccc(-c2nnc(N[C@@H]3CCCN(C)C3)c3ccnc(C)c23)c(O)c1 [Example 79, (R)-5-methoxy-2-(5-methyl-1-((1-methylpiperidin-3-yl)amino)pyrido[3,4-d]pyridazin-4-yl)phenol] | 8.30 | 4.61
31 | Cc1cc2c(-c3ccc(Cl)cc3)nnc(NC3CCCN(C)C3)c2cn1 (centres unmarked) [Example 80, 1-(4-chlorophenyl)-7-methyl-N-(1-methylpiperidin-3-yl)pyrido[3,4-d]pyridazin-4-amine] | 7.44 | < 4.52
32 | CN1CCC[C@@H](Nc2nnc(-c3ccccc3O)c3c2CCOC3)C1 [Example 227, (R)-2-(1-((1-methylpiperidin-3-yl)amino)-7,8-dihydro-5H-pyrano[3,4-d]pyridazin-4-yl)phenol] | 7.68 | 
33 | COc1ccc(-c2nnc(N[C@@H]3CCCN(C4CC4)C3)c3c2CCOC3)cc1 [Example 228, (R)—N-(1-cyclopropylpiperidin-3-yl)-1-(4-methoxyphenyl)-7,8-dihydro-5H-pyrano[3,4-d]pyridazin-4-amine] | 7.64 | 
34 | Cc1ccc(-c2nnc(NC34CCC(O)(CC3)C4)c3c2CCOC3)c(O)c1 [Example 231, 4-((1-(2-hydroxy-4-methylphenyl)-7,8-dihydro-5H-pyrano[3,4-d]pyridazin-4-yl)amino)bicyclo[2.2.1]heptan-1-ol] | 6.71 | 
